Patent US11638424B2, “Mosquito attractant formulations and uses thereof” (priority 2017, dated 2023)

Legend:
Type in all cases: in vivo
A. gambiae s.l. = assay: Olfactometer bioassay (larger Y-tube olfactometer / wind tunnel assay); settings: RBCs+CO2 vs hRBCs, FIG. 2A
Protocol: Behavioural experiments were performed using different odour sources with and without pulsed CO2 stimuli in a Plexiglas Y shaped olfactometer (9.5 cm i.d.×length of the central cylinder and two arms: 120/120/120 cm respectively), illuminated from above at 280 lx. A charcoal-filtered and humidified air stream (25±2° C., RH 65±2%) passed through stainless steel mesh screens at 30 cm s^−1 to generate a laminar flow in the olfactometer. Odors were introduced into the air stream of each arm at the downwind end. […] Odor sources consisted of either RBC-based treatments or headspace extracts. RBC-based treatments included RBCs alone, hRBCs, giRBCs or ippRBCs (RBCs supplemented with HMBPP, gametocytes or IPP), as well as RBCs with supernatants from gametocyte-infected RBCs, or RBCs supplemented with the synthetic odour blend. Headspace extracts collected from hRBCs and giRBCs were used. Treatments including RBCs were heated to 37° C. prior to being pumped (150 ml min^−1) into the airstream of each arm separately. The blend and headspace extracts were delivered to each arm via a wick dispenser. Carbon dioxide (Strandmöllen) was introduced into a plume generator that was placed behind the metal screens to create a homogenous-pulsed flow, which was regulated by a stimulus controller (SEC-2/b, Syntech, Löptin Germany). […]

A. gambiae sensu lato [1] = assay: Dual choice attraction bioassay (Y-tube olfactometer); settings: added to RBCs
Protocol: Mosquitoes used in this study were from the laboratory colony of A. gambiae sensu lato (Keele line, University of Glasgow), which was produced by balanced interbreeding of four A. gambiae s.s. strains (H. Hurd, et al. Evolution, 59, 2560-2572 (2005)). Larvae were reared under standard insectary conditions (27±1° C., 70% humidity, 12 h light: 12 h dark cycle) and fed on TetraMin fish flakes (Tetra ltd., Germany). Pupae were transferred into holding cages for emergence. Emerged adults were fed ad libitum on 5% glucose solution, supplemented with 0.05% (w/v) 4-aminobenzoic acid (PABA, Sigma-Aldrich), through soaked filters on top of the 2 ml tubes and with soaked filter pads inside cages. Red blood cells (RBCs) were washed with Roswell Park Memorial Institute (RPMI) medium and stored in RPMI at 50% haematocrit at 4° C. until use. To measure the effect of HMBPP on mosquito fitness, RBCs stored in RPMI were centrifuged at 2500×g for 5 min followed by replacement of the medium with AB serum for a final haematocrit of 40%. HMBPP (stock concentration at 4 mM in Nanopure water, stored at −80° C.) was diluted to 10 μM in 1 ml RBC suspension, and the corresponding volume of Nanopure water was added to the control RBCs. All experiments were, unless otherwise stated, conducted on 5-7 days post-emergence female mosquitoes maintained in separated cages (approximately 210 individuals per cohort) and fed RBCs either with or without HMBPP for 30 min. All experiments were performed in triplicates.
Initial experiments were performed using a Y-tube olfactometer (length of the central cylinder and two arms: 25/15/15 cm respectively, inner diameter: 5 cm; see FIG. 1a). For each experiment, 180 female mosquitoes were individually placed in a release chamber and flown one by one. Females flew towards the upwind end (airflow 3 L min^−1) and entered one of two trapping chambers through which odour released from nearby membrane feeders passed (5 cm distance to each trapping chamber). Three experiments were conducted. In the first experiment, the membrane feeders were loaded with RBCs with or without HMBPP, while in the second they were loaded with serum with or without HMBPP. The third experiment was performed with a 5% glucose with 0.05% PABA solution with or without HMBPP. To control for possible spatial effects, the location of treatment at each olfactometer arm was switched every 30 minutes (˜15 mosquitoes flied one by one in each 30 minutes). Each replacement (feeder rotation with fresh RBCs) was counted as an experimental replicate (experimental block). Mosquitoes reaching any of the trapping chambers were considered to have made a choice. Each experiment was repeated six times with in total 180 mosquitoes per treatment.

A. gambiae sensu lato [2] = assay: Fosmidomycin assay (feeding on media of FR-900098-treated, IPP-rescued parasite culture); settings: supplemented with IPP, 90 s feeding, FIG. 1D
Protocol: The fosmidomycin assay was carried out as previously described (12). 48 hours (h) after the initiation of antibiotic treatment (FR-900098, the N-acetyl analogue to fosmidomycin), asexual parasite cultures were rescued by supplementation with 200 μM IPP for 48 h of continued passaging. Media from the rescued culture were collected and offered to mosquitoes, in comparison with media from control parasites (without antibiotic treatment). Fifty mosquitoes, isolated in two separate cages, were offered different treatments. Each group was allowed to feed on its own membrane feeder for 90 s.

With `O=C=O` [carbon dioxide, reference compound] the “attraction to RBCs supplemented with carbon dioxide versus hRBCs” value (A. gambiae s.l.) was “not sufficient to reproduce the full mosquito attraction to hRBCs”.

With `C/C(=C\CO)CO` [(2E)-2-methylbut-2-ene-1,4-diol, reference compound] the “effect on the attraction of mosquitoes to RBCs” value (A. gambiae sensu lato [1]) was “had no effect”.

In the case of `CC(=O)N(O)CCCP(=O)(O)O` [fosmidomycin derivative], the “mosquito feeding after block of HMBPP synthesis in tiRBCs” value (A. gambiae sensu lato [2]) is reported as “reduction of feeding to control levels”.
